The source of these data is US5726186A, “Pentacyclic compounds, intermediates, processes, compositions, and methods” (Eli Lilly and Company, priority 1996, dated 1998).

Assay [1] has as its system MCF-7 breast adenocarcinoma cells. Nature of the assay: MCF-7 Proliferation Assay (tritiated thymidine). The format is cell-based. As to conditions: Homo sapiens, MCF7; MCF-7 cells, 48 hours, tritiated thymidine pulse 4 hours. How it is done:
MCF-7 breast adenocarcinoma cells (ATCC HTB 22) were maintained in MEM (minimal essential medium, phenol red-free, Sigma, St. Louis, Mo.) supplimented with 10% fetal bovine serum […] (V/V), L-glutamine (2 mM), sodium pyruvate (1 mM), HEPES {(N-[2-hydroxyethyl]piperazine-N'-[2-ethanesulfonic acid]10 mM)}, non-essential amino acids and bovine insulin (1 ug/mL) (maintenance medium). Ten days prior to assay, MCF-7 cells were switched to maintenance medium supplemented with 10% dextran coated charcoal stripped fetal bovine serum (DCC-FBS) assay medium) in place of 10% FBS to deplete internal stores of steroids. MCF-7 cells were removed from maintenance flasks using cell dissociation medium (Ca++/Mg++ free HBSS (phenol red-free) supplemented with 10 mM HEPES and 2 mM EDTA). Cells were washed twice with assay medium and adjusted to 80,000 cells/mL. Approximately […] (8,000 cells) were added to flat-bottom microculture wells (Costar 3596) and incubated at 37° C. in a 5% CO2 humidified incubator for 48 hours to allow for cell adherence and equilibration after transfer. Serial dilutions of drugs or DMSO as a diluent control were prepared in assay medium and […] to triplicate microcultures followed by […] assay medium for a final volume of […]. After an additional 48 hours at 37° C. in a 5% CO2 humidified incubator, microcultures were pulsed with tritiated thymidine (1 uCi/well) for 4 hours. Cultures were terminated by freezing at -70° C. for 24 hours followed by thawing and harvesting of microcultures using a Skatron Semiautomatic Cell Harvester. Samples were counted by liquid scintillation using a Wallac BetaPlace b counter. Results in Table 3 below show the IC50 for certain compounds of the present invention.

The test system of a further assay is uterus. As to the kind of experiment: Wet uterine weight in ovariectomized rats (post-menopausal model). The class given is in vivo, female Sprague Dawley rats (ovariectomized). As to conditions: oral, OVX rats. As to the method:
In the examples illustrating the methods, a post-menopausal model was used in which effects of different treatments upon circulating lipids were determined.
(§1) Seventy-five day old female Sprague Dawley rats (weight range of 200 to 225 g) were obtained from Charles River Laboratories (Portage, Mich.). The animals were either bilaterally ovariectomized (OVX) or exposed to a Sham surgical procedure at Charles River Laboratories, and then shipped after one week. Upon arrival, they were housed in metal hanging cages in groups of 3 or 4 per cage and had ad libitum access to food (calcium content approximately 0.5%) and water for one week. Room temperature was maintained at 22.2°±1.7° C. with a minimum relative humidity of 40%. The photoperiod in the room was 12 hours light and 12 hours dark.
(§2) Dosing Regimen Tissue Collection. After a one week acclimation period (therefore, two weeks post-OVX) daily dosing with test compound was initiated. 17a-ethynyl estradiol or the test compound were given orally, unless otherwise stated, as a suspension in 1% carboxymethylcellulose or dissolved in 20% cyclodextrin. Animals were dosed daily for 4 days. Following the dosing regimen, animals were weighed and anesthetized with a ketamine: Xylazine (2:1, V:V) mixture and a blood sample was collected by cardiac puncture. The animals were then sacrificed by asphyxiation with CO2, the uterus was removed through a midline incision, and a wet uterine weight was determined.
(§3) The data presented in the Tables 1 below reflects the response of 5 to 6 rats per treatment.

The subject of the next assay is Serum Cholesterol. Nature of the assay: Serum cholesterol analysis in ovariectomized rats. As to conditions: oral, OVX rats. The format is in vivo, female Sprague Dawley rats (ovariectomized).
Source text: as §1, §2
Cholesterol Analysis. Blood samples were allowed to clot at room temperature for 2 hours, and serum was obtained following centrifugation for 10 minutes at 3000 rpm. Serum cholesterol was determined using a Boehringer Mannheim Diagnostics high performance cholesterol assay. Briefly the cholesterol was oxidized to cholest-4-en-3-one and hydrogen peroxide. The hydrogen peroxide was then reacted with phenol and 4-aminophenazone in the presence of peroxidase to produce a p-quinone imine dye, which was read spectrophotemetrically at 500 nm. Cholesterol concentration was then calculated against a standard curve. The entire assay was automated using a Biomek Automated Workstation.
as §3

Assay [2] deals with Uterine Eosinophil Peroxidase (EPO). Nature of the assay: Uterine Eosinophil Peroxidase (EPO) Assay. The class given is in vivo, female Sprague Dawley rats (ovariectomized). The arrangement: Uterine EPO (V. max): unit not given here. As to conditions: oral, daily for 4 days, OVX rats; for Uterine EPO (V. max): 450 nm.
Source text: as §1, §2
Uterine Eosinophil Peroxidase (EPO) Assay. Uteri were kept at 4° C. until time of enzymatic analysis. The uteri were then homogenized in 50 volumes of 50 mM Tris buffer (pH-8.0) containing 0.005% Triton X-100. Upon addition of 0.01% hydrogen peroxide and 10 mM O-phenylenediamine (final concentrations) in Tris buffer, increase in absorbance was monitored for one minute at 450 nm. The presence of eosonophils in the uterus is an indication of estrogenic activity of a compound. The maximal velocity of a 15 second interval was determined over the initial, linear portion of the reaction curve.
As is expressed in the below data, estrogenicity also was assessed by evaluating the adverse response of eosinophil infiltration into the uterus.
as §3

Another assay relates to Distal Femur Metaphysis. As to the kind of experiment: Osteoporosis test, distal femur metaphysis X-ray image analysis. The class given is in vivo, female Sprague Dawley rats (ovariectomized). Conditions: oral; for Distal Femur Metaphysis (X-ray Image Analysis-Gray Score), percent protection relative to ovariectomy: daily for 35 days, in 20% hydroxypropyl b-cyclodextrin. From the text: Seventy-five day old female Sprague Dawley rats (weight range of 200 to 225 g) were obtained from Charles River Laboratories (Portage, Mich.). The animals were either bilaterally ovariectomized (OVX) or exposed to a Sham surgical procedure at Charles River Laboratories, and then shipped after one week. Upon arrival, they were housed in metal hanging cages in groups of 3 or 4 per cage and had ad libitum access to food (calcium content approximately 0.5%) and water for one week. Room temperature was maintained at 22.2°±1.7° C. with a minimum relative humidity of 40%. The photoperiod in the room was 12 hours light and 12 hours dark. Following the General Preparation Procedure, infra, the rats were treated daily for 35 days (6 rats per treatment group) and sacrificed by carbon dioxide asphyxiation on the 36th day. The 35 day time period was sufficient to allow maximal reduction in bone density, measured as described herein. At the time of sacrifice, the uteri were removed, dissected free of extraneous tissue, and the fluid contents were expelled before determination of wet weight in order to confirm estrogen deficiency associated with complete ovariectomy. […] The uteri were then placed in 10% neutral buffered formalin to allow for subsequent histological analysis. The right femurs were excised and digitilized x-rays generated and analyzed by an image analysis program (NIH image) at the distal metaphysis. The proximal aspect of the tibiae from these animals were also scanned by quantitative computed tomography. In accordance with the above procedures, compounds of the present invention and ethynyl estradiol (EE2) in 20% hydroxypropyl b-cyclodextrin were orally administered to test animals. Distal femur metaphysis data presented in Tables 2 and 3 below are the results of formula I compound treatments compared to intact and ovariectomized test animals. Results are reported as percent protection relative to ovariectomy.

The mark [3] stands for this setting: Rattus norvegicus, 96 h, daily for 4 days, read-out: Uterine Weight (% increase vs. OVX).
The mark [4] stands for this setting: Rattus norvegicus, 96 h, daily for 4 days, read-out: Serum Cholesterol (% decrease vs. OVX).

SMILES strings stand for the structures.

By IC50 is commonly meant the concentration that gives 50% inhibition. In assay [1], `O=S(=O)(Oc1ccc2c(c1)OC(c1ccc(OCCN3CCCCC3)cc1)c1c-2sc2cc(OS(=O)(=O)C(F)(F)F)ccc12)C(F)(F)F` (centres unmarked) [Example 6, 3,9-Bis(trifluoromethanesulfonyloxy)-6-[4-[2-(1-piperidinyl)ethoxy]phenyl]-6-H-[1]benzothieno[3,2-c][1]benzopyran] gave an IC50 of 500 nM. Also, in the assay on uterus (setting [3]), the change in vivo at 0.1 mg/kg is 23%, the change in vivo at 1 mg/kg stood at 6.4% and the change in vivo at 10 mg/kg worked out at 50%. In the assay on Serum Cholesterol (setting [4]), the inhibition in vivo at 0.1 mg/kg is -2.5%, the inhibition in vivo at 1 mg/kg amounted to 9.9% and the inhibition in vivo at 10 mg/kg is -11.4%. For the same molecule, in assay [2] (0.1 mg/kg), the “Uterine EPO (V. max)” value stood at 4.2. The “Uterine EPO (V. max)” value in assay [2] (1.0 mg/kg) is given as 1.8. In addition, in assay [2] (10.0 mg/kg), the “Uterine EPO (V. max)” value is 3.6.

Take `c1ccc2c(c1)OC(c1ccc(OCCN3CCCCC3)cc1)c1c-2sc2ccccc12` (centres unmarked) [Example 7, 6-[4-[2-(1-piperidinyl)ethoxy]phenyl]-6-H-[1]benzothieno[3,2-c][1]benzopyran]: in the assay on uterus (setting [3]), the change in vivo at 0.1 mg/kg was 28.9%, the change in vivo at 1 mg/kg was found to be 31.2% and the change in vivo at 10 mg/kg was determined as 14.7%. In the assay with Serum Cholesterol (setting [4]), the inhibition in vivo at 0.1 mg/kg was 39.8%, the inhibition in vivo at 1 mg/kg is 65.5% and the inhibition in vivo at 10 mg/kg was 54%. Moreover, the “Uterine EPO (V. max)” value in assay [2] (0.1 mg/kg) was found to be 4.8. Besides, the “Uterine EPO (V. max)” value in assay [2] (1.0 mg/kg) was 6.6. In assay [2] (10.0 mg/kg), the “Uterine EPO (V. max)” value was found to be 3.6.

For `Oc1ccc2c(c1)OC(c1ccc(OCCN3CCCCC3)cc1)c1c-2ccc2cc(O)ccc12` (centres unmarked) [Example 11b, 2,8-Dihydroxy-5-[4-[2-(1-piperidinyl)ethoxy]phenyl]-5H-benzo[b]naphtho[2,1-d]pyran], in the assay with uterus (setting [3]), the change in vivo at 0.1 mg/kg is 13.6%. For the same molecule, the change in vivo at 1 mg/kg with uterus (setting [3]) stood at 7.6%. For the same molecule, the change in vivo at 10 mg/kg in the assay with uterus (setting [3]) was -4.1%. Also, the “Distal Femur Metaphysis (X-ray Image Analysis-Gray Score), percent protection relative to ovariectomy” value was 45.6% in the assay on Distal Femur Metaphysis (0.01 mg/kg), 38.5% in the assay on Distal Femur Metaphysis (0.1 mg/kg), 58.5% with Distal Femur Metaphysis (1.0 mg/kg) and 37.3% in the assay on Distal Femur Metaphysis (10.0 mg/kg). Besides, in the assay on Serum Cholesterol (setting [4]), the inhibition in vivo at 0.1 mg/kg came to 66.4%. Further, the inhibition in vivo at 1 mg/kg in the assay on Serum Cholesterol (setting [4]) came out at 73.9%. For the same molecule, the inhibition in vivo at 10 mg/kg in the assay with Serum Cholesterol (setting [4]) was 61.4%. Besides, the “Uterine EPO (V. max)” value in assay [2] (0.1 mg/kg) worked out at 9.3; in assay [2] (1.0 mg/kg) it was 12.0; in assay [2] (10.0 mg/kg), 7.8.

As to `COc1ccc2c(c1)OC(c1ccc(OCCN3CCCCC3)cc1)c1c-2sc2cc(OC)ccc12` (centres unmarked) [Example 2, 3,9-Dimethoxy-6-[4-[2-(1-piperidinyl)ethoxy]phenyl]-6-H-[1]benzothieno[3,2-c][1]benzopyran], 100 nM corresponded to half-maximal inhibition in assay [1] (IC50).

Take `Oc1ccc2c(c1)OC(c1ccc(OCCN3CCCC3)cc1)c1c-2sc2cc(O)ccc12` (centres unmarked) [Example 8, 3,9-Dihydroxy-6-[4-[2-(1-pyrrolidinyl)ethoxy]phenyl]-6-H-[1]benzothieno[3,2-c][1]benzopyran]: the change in vivo at 0.01 mg/kg in the assay on uterus (Rattus norvegicus, 96 h, 0.01 mg/kg, daily for 4 days, read-out: Uterine Weight (% increase vs. OVX)) worked out at 10.2%. Besides, in the assay with uterus (setting [3]), the change in vivo at 0.1 mg/kg came out at 27.4% and the change in vivo at 1 mg/kg turned out to be 27.2%. Moreover, the inhibition in vivo at 0.01 mg/kg with Serum Cholesterol (Rattus norvegicus, 96 h, 0.01 mg/kg, daily for 4 days, read-out: Serum Cholesterol (% decrease vs. OVX)) is 50.5%. For the same molecule, in the assay with Serum Cholesterol (setting [4]), the inhibition in vivo at 0.1 mg/kg was 38.5% and the inhibition in vivo at 1 mg/kg was 68%. Further, the “Uterine EPO (V. max)” value in assay [2] (0.01 mg/kg) worked out at 2.1. In addition, the “Uterine EPO (V. max)” value in assay [2] (0.1 mg/kg) turned out to be 4.8. For the same molecule, in assay [2] (1.0 mg/kg), the “Uterine EPO (V. max)” value is 4.8.

Take `C#CC1(O)CCC2C3CCc4cc(O)ccc4C3CCC21C` (stereo not drawn) [EE2, 17α-ethynyl estradiol, reference compound]: the change in vivo at 0.1 mg/kg in the assay with uterus (setting [3]) stood at 86.3%. Moreover, the “Uterine weight (result in words)” value in the assay with uterus (EE2 at 0.1 mg/kg/day) is listed as “uterine weight was substantially greater than the uterine weight of ovariectomized test animals”. Further, the “Distal Femur Metaphysis (X-ray Image Analysis-Gray Score), percent protection relative to ovariectomy” value in the assay with Distal Femur Metaphysis (0.1 mg/kg) came to 62.4%. The “Prevention of bone loss (result in words)” value with Distal Femur Metaphysis (OVX rats, 35 days) is on record as “prevented this loss”. The inhibition in vivo at 0.1 mg/kg with Serum Cholesterol (setting [4]) amounted to 81.4%. Moreover, the “Serum cholesterol (result in words)” value in the assay with Serum Cholesterol (EE2 at 0.1 mg/kg/day) is listed as “caused a decrease in serum cholesterol”. In addition, the “Uterine EPO (V. max)” value in assay [2] (0.1 mg/kg) came out at 116.4. For the same molecule, in assay [2], the “Eosinophil infiltration into the uterus (stromal layer)” value is listed as “substantial, expected increase in eosinophil infiltration”.

As to `CN(C)CCOc1ccc(C2Oc3cc(O)ccc3-c3sc4cc(O)ccc4c32)cc1` (centres unmarked) [Example 9, 3,9-Dihydroxy-6-[4-(2-dimethylaminoethoxy)phenyl]-6-H-[1]benzothieno[3,2-c][1]benzopyran], the change in vivo at 0.1 mg/kg in the assay on uterus (setting [3]) amounted to 77.8%. Also, in the assay with Serum Cholesterol (setting [4]), the inhibition in vivo at 0.1 mg/kg was 40.1%. For the same molecule, in assay [2] (0.1 mg/kg), the “Uterine EPO (V. max)” value worked out at 52.2.
